The text below walks through data of publication PMC11211329, “Phage-encoded bismuth bicycles enable instant access to targeted bioactive peptides” (Communications Chemistry, 2024).

This test deals with T1, streptavidin (Streptomyces avidinii, UniProt P22629).
T1 construct: purchased New England Biolabs
Description: biochemical. The test is classed as binding. Particulars: for more active than linear counterpart: ratio of KD, bicycle vs linear peptide. On the procedure:
SPR measurements were performed with 20 mM HEPES–KOH pH 7.4, 150 mM NaCl, 0.5 mM TCEP, 0.05% (v/v) polysorbate 20 as running buffer. For each experiment, 100–150 μg streptavidin in 10 mM sodium acetate pH 3.9 buffer was freshly immobilised on a sensor chip flow-cell using EDC/NHS chemistry at 25 °C in absence of TCEP. All binding experiments were conducted at 20 °C in single-cycle kinetics mode (Fig. 4, Supplementary Figs. 17, 18, Supplementary Data 2).
SPR experiments were performed on a Biacore 8K (Cytiva, USA) using a CM5 chip (Cytiva, 29104988, USA), onto which streptavidin (New England Biolabs, USA) was freshly immobilised using an amine coupling kit (Cytiva, USA) for each individual experiment. The instrument was operated using Biacore Insight 5 software (Cytiva, USA). The data were plotted and analysed in GraphPad Prism 10 (Dotmatics, USA) using the non-linear fit ‘one site – specific binding’ (Supplementary Equation 2). KD values of duplicate measurements are represented as the mean value ± standard deviation.
Supplementary Equation 2.
X = analyte concentration [µM]
RUmax = maximum response [RU]
KD = dissociation constant [µM]

As usually defined, the Kd is the concentration at which binding is half-saturated. Low values mean higher affinity, high ones lower affinity.

Several values for one entry are separate records, joined by “and”; a condition that tells them apart may be missing. Identical values can stand only once. Like-named read-outs stand apart in the source and are kept apart here.

T1 sequence (P22629 25-183): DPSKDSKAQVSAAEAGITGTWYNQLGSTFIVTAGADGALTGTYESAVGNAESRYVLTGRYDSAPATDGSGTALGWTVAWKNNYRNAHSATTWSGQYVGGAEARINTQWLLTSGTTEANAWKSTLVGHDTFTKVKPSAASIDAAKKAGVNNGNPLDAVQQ

In the case of `CSCC[C@@H]1NC(=O)[C@@H]2CCCN2C(=O)[C@H](Cc2c[nH]cn2)NC(=O)[C@H](CO)NC(=O)[C@@H](NC(=O)[C@H](C)N)C[S][Bi]2[S]C[C@@H](C(N)=O)NC(=O)[C@@H]3CCCN3C(=O)[C@H](Cc3ccccc3)NC(=O)CNC(=O)[C@H](CCC(=O)O)NC(=O)[C@H](C[S]2)NC1=O` [1b], the “affinity towards streptavidin (in words)” value (SPR) is reported as “micromolar affinity”. Besides, the Response runs as follows: (SPR, 0.390625 μM peptide) 6.1348 RU and 7.3042 RU; (SPR, 0.78125 μM peptide) 7.9335 RU and 9.6048 RU; (SPR, 1.5625 μM peptide) 11.7844 RU and 13.9912 RU; (SPR, 3.125 μM peptide) 18.5476 RU and 21.5419 RU; (SPR, 6.25 μM peptide) 29.9992 RU and 34.3112 RU; (SPR, 12.5 μM peptide) 48.2716 RU and 55.717 RU. The Response was 75.0467 RU and 86.4584 RU (SPR, 25 μM peptide); 95.3416 RU and 109.542 RU (SPR, 50 μM peptide); 110.889 RU and 126.3 RU (SPR, 100 μM peptide).
On to `C[C@H](N)C(=O)N[C@H]1C[S][Bi]2[S]C[C@@H](C(N)=O)NC(=O)[C@H](C)NC(=O)[C@H](C)NC(=O)[C@H](C)NC(=O)[C@H](CCC(=O)O)NC(=O)[C@H](C[S]2)NC(=O)[C@H](CCC(N)=O)NC(=O)[C@@H]2CCCN2C(=O)[C@H](Cc2c[nH]cn2)NC(=O)[C@@H]2CCCN2C1=O` [2b], for which the “more active than linear counterpart” value is listed as “approximately 200 times”. Also, where the note is “SPR”, the “affinity towards streptavidin (in words)” value is given as “micromolar affinity”. Besides, the Response (SPR, 0.390625 μM peptide) is 13.0345 RU and 9.7931 RU. In addition, the Response (SPR, 0.78125 μM peptide) is 13.307 RU and 10.0327 RU. In addition, the Response (SPR, 1.5625 μM peptide) is 13.7466 RU and 10.2315 RU. Moreover, the Response (SPR, 3.125 μM peptide) is 15.583 RU and 11.4763 RU. Besides, the Response (SPR, 6.25 μM peptide) was 24.2151 RU and 19.0135 RU. Besides, where the note is “SPR, 12.5 μM peptide”, the Response is 41.2334 RU and 33.5268 RU. For the setting “SPR, 25 μM peptide”, the Response was 50.6436 RU and 38.7895 RU. Further, the Response (SPR, 50 μM peptide) is 52.9652 RU and 37.872 RU. Also, the Response (SPR, 100 μM peptide) is 63.2365 RU and 47.0629 RU. Besides, the Kd (SPR, 20 °C, single-cycle kinetics, 1b, 2b, 3a, 4a n = 2 (mean ± SD), 2, 3, 3b, 4b n = 1) is 7.4 µM.
On to `C[C@H](N)C(=O)N[C@H]1CS[As]2SC[C@@H](C(N)=O)NC(=O)[C@H](C)NC(=O)[C@@H]3CCCN3C(=O)[C@H](CCC(=O)O)NC(=O)[C@H]([C@@H](C)O)NC(=O)[C@H](CS2)NC(=O)[C@H](CC(N)=O)NC(=O)[C@H](CCC(N)=O)NC(=O)[C@@H]2CCCN2C(=O)[C@H](Cc2c[nH]cn2)NC1=O` [3a], for which binding was put at a Kd of 11.7 µM and the “more active than linear counterpart” value was “approximately 80 times”. Besides, the “affinity towards streptavidin (in words)” value (SPR) is given as “micromolar affinity”. Further, the Response (SPR, 0.390625 μM peptide) was 3.2004 RU and 3.5032 RU. Further, the Response (SPR, 0.78125 μM peptide) was 4.9583 RU and 6.3102 RU. Besides, under “SPR, 1.5625 μM peptide”, the Response is 9.0442 RU and 11.2377 RU. Moreover, the Response (SPR, 3.125 μM peptide) is 17.2093 RU and 20.7499 RU. In addition, the Response (SPR, 6.25 μM peptide) is 31.5997 RU and 35.2522 RU. The Response (SPR, 12.5 μM peptide) was 49.5222 RU and 52.7774 RU. Moreover, under “SPR, 25 μM peptide”, the Response was 65.4485 RU and 68.0889 RU. Besides, the Response (SPR, 50 μM peptide) was 75.5589 RU and 77.8751 RU.
For `C[C@H](N)C(=O)N[C@H]1C[S][Bi]2[S]C[C@@H](C(N)=O)NC(=O)[C@H](C)NC(=O)[C@@H]3CCCN3C(=O)[C@H](CCC(=O)O)NC(=O)[C@H]([C@@H](C)O)NC(=O)[C@H](C[S]2)NC(=O)[C@H](CC(N)=O)NC(=O)[C@H](CCC(N)=O)NC(=O)[C@@H]2CCCN2C(=O)[C@H](Cc2c[nH]cn2)NC1=O` [3b], the “affinity towards streptavidin (in words)” value (SPR) is “two-digit micromolar dissociation constants”. For the same compound, the Response is, setting by setting: (SPR, 0.78125 μM peptide) 7.812 RU; (SPR, 1.5625 μM peptide) 10.9116 RU; (SPR, 3.125 μM peptide) 21.8994 RU; (SPR, 6.25 μM peptide) 58.4112 RU; (SPR, 12.5 μM peptide) 130.364 RU; (SPR, 25 μM peptide) 206.319 RU. Moreover, the Response reads like this: (SPR, 50 μM peptide) 242.538 RU; (SPR, 100 μM peptide) 254.246 RU; (SPR, 200 μM peptide) 258.218 RU.
